Tests used:
[1] = test system: IFO-4466, IFO-6353, and IFO-7757; assay: Growth of reference strains on solid medium containing cycloheximide; format: cell-based, Aureobasidium pullulans; details: solid medium (agar plate), 26° C., 10 days
Method: This is the case that the formation of a colony of 0.1 mm or greater, preferably 0.3 mm or greater, still preferably 0.5 mm or greater in diameter as a result of fungous proliferation is observed on a solid medium having the cycloheximide concentration that IFO strains is not allowed to grow after a strain is inoculated on the solid medium (agar plate) containing cycloheximide and cultured at 26° C. for 10 days. Usually, these IFO strains are not allowed to grow on a solid medium containing cycloheximide at concentrations of 20 μg/ml or higher.

[2] = test system: ADK-5; assay: Cycloheximide resistance test; format: cell-based; details: strain ADK-5, YM agar, 26° C., 10 days
Method: (§1) The strains obtained by the screening in Test Examples 1 and 2 and IFO-4466, IFO-6353, and IFO-7757 purchased from Institute for Fermentation, Osaka, i.e., were tested for cycloheximide resistance as follows. Each strain was grown on YM agar medium (Difco) at 26° C. for 5 days. YM agar media (Difco) containing 5, 10, 20, 40, and 80 μg/ml of cycloheximide were prepared. The grown strain was inoculated into each of the cycloheximide-containing media using a sterile toothpick and incubated at 26° C. for 10 days. The plates were examined for colonies. The diameters of the colonies, if formed, were measured.

[3] = test system: ADK-27; assay: Cycloheximide resistance test; format: cell-based; details: strain ADK-27, YM agar, 26° C., 10 days
Method: as §1

C[C@@H]1C[C@@H]([C@H](O)CC2CC(=O)NC(=O)C2)C(=O)[C@@H](C)C1 [Cycloheximide, cycloheximide]
cycloheximide concentration at which IFO strains are not allowed to grow [1]: ≥ 20 µg/mL
Colony diameter ([2]; cycloheximide 5 μg/ml): 6.3 mm
Colony diameter ([2]; cycloheximide 10 μg/ml): 0 mm
Colony diameter ([2]; cycloheximide 20 μg/ml): 0 mm
Colony diameter ([2]; cycloheximide 40 μg/ml): 0 mm
Colony diameter ([2]; cycloheximide 80 μg/ml): 0 mm
Colony diameter ([3]; cycloheximide 5 μg/ml): 10.3 mm
Colony diameter ([3]; cycloheximide 10 μg/ml): 0 mm
Colony diameter ([3]; cycloheximide 20 μg/ml): 0 mm
Colony diameter ([3]; cycloheximide 40 μg/ml): 0 mm
Colony diameter ([3]; cycloheximide 80 μg/ml): 0 mm
